We go through 2 molecules from patent US12054485B2, “Substituted imidazoquinolines” (BIONTECH SE, priority 2017, dated 2024).

Assay [1] concerns superficial basal cell carcinomas. As to conditions: 5% cream (Aldara), topical; cited from earlier work.
Another assay concerns the target T1, human TLR8 (Homo sapiens, UniProt Q9NR97).
T1 construct: host or cells: HEK-Blue-hTLR8
T1 sequence (Q9NR97 27-1041): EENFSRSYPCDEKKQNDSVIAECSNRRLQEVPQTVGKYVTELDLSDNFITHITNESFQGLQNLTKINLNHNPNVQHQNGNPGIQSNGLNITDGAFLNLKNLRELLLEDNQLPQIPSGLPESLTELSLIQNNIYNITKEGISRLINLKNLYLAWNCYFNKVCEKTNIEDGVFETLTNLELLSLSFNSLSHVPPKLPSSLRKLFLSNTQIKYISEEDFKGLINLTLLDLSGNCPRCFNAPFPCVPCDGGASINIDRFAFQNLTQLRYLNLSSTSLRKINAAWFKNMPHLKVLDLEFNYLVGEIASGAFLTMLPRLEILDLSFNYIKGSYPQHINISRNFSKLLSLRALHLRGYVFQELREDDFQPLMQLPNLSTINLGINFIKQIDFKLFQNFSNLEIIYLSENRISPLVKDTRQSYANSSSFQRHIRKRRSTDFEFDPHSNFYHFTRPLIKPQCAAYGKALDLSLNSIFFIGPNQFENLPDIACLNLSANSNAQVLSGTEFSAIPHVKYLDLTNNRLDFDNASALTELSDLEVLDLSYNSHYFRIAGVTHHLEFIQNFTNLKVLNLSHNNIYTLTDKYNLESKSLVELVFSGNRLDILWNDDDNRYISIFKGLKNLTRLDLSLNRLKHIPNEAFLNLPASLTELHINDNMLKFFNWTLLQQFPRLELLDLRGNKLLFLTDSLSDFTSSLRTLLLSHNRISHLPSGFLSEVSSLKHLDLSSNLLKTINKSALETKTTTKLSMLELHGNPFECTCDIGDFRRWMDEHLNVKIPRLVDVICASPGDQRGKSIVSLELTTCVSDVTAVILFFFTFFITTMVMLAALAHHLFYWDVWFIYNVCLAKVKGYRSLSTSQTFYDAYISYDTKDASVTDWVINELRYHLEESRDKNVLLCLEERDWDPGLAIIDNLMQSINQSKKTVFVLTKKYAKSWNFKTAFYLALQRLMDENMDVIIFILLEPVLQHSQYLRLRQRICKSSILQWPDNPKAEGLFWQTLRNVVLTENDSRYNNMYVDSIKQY
As to the kind of experiment: TLR8 reporter gene assay (HEK-Blue-hTLR8, NFkB/AP-1 inducible SEAP). The assay is classed as cell-based. Here is the method:
(§1) 2) TLR Stimulation Assay:
(§2) Compounds are tested for stimulation of human TLR7 and TLR8, respectively, via reporter gene expression analyzed in a cell line stably transfected with human TLR7 and TLR8, respectively, and coexpressing an NFkB/AP-1 inducible SEAP reporter gene. Stimulation with a TLR ligand leads to NFkB/AP-1 activation and upregulation and secretion of SEAP, which can be measured in the supernatant with QuantiBlue™ detection system (InvivoGen).
Cell lines used were either HEK-Blue-hTLR7 (InvivoGen #hkb-htlr7) or HEK-Blue-hTLR8 (InvivoGen #hkb-htlr8). Cells were cultured following manufacturer's instructions. […]
A general note: Reporter assays use an easily measured gene product as a stand-in for the process of interest.

Another assay concerns the target T2, human TLR7 (Homo sapiens, UniProt Q9NYK1).
T2 construct: host or cells: HEK-Blue-hTLR7
T2 sequence (Q9NYK1 27-1049): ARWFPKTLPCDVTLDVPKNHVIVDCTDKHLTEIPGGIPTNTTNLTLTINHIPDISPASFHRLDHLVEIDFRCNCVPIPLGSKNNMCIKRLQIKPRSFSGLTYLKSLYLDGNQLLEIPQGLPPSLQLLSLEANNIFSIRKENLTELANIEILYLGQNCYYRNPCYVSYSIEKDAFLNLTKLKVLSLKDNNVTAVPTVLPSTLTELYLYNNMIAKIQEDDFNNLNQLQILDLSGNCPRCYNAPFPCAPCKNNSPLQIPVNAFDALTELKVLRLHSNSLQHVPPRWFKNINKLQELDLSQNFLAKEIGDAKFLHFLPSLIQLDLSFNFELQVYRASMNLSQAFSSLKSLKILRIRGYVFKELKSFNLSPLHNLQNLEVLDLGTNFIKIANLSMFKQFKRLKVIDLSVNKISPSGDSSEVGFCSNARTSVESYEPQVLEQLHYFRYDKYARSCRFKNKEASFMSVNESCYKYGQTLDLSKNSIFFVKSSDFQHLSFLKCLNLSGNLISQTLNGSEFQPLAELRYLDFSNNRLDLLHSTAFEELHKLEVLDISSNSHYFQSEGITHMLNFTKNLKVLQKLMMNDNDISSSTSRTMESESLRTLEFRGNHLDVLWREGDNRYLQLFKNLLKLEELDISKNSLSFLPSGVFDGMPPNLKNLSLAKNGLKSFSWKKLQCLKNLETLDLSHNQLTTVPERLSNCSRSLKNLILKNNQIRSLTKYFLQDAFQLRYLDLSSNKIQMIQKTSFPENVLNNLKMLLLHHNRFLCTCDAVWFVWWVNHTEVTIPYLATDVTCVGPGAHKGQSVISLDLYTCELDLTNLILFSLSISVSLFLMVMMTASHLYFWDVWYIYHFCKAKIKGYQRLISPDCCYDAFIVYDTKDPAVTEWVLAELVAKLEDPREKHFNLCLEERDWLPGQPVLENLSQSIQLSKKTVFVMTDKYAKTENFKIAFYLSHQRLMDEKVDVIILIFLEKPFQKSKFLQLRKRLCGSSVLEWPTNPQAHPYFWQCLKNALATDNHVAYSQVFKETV
Description: TLR7 reporter gene assay (HEK-Blue-hTLR7, NFkB/AP-1 inducible SEAP). The assay is classed as cell-based. As to conditions: HEK-Blue-hTLR7; highest concentration without any activity; read-out: activity towards TLR7 (no activity up to a concentration of). As to the method: as §1, §2
Cell lines used were either HEK-Blue-hTLR7 (InvivoGen #hkb-htlr7) or HEK-Blue-hTLR8 (InvivoGen #hkb-htlr8). Cells were cultured following manufacturer's instructions.
Assay: • prepare cell suspensions of each cell line with Nv=0.11×10^6 cells/ml in medium (DMEM 4.5 g/l Glucose, 2-4 mM L-glutamine+10% FBS) without antibiotics (Nv=number of living cells) • add 180 μl of the suspensions per well of a 96 well flat bottom cell culture plates (coster, #3506) • incubate the plates overnight at 37° C. and 5% CO2 • prepare samples and controls as solutions in DMSO: R848, CL075 (TLR 7/8 agonist by InvivoGen) and Guardiquimod each to a final concentration of 10 μM, ODN2006 (InvivoGen) and ODN2216 (InvivoGen) each to a final concentration 2 μM; • compounds of the invention are applied in dilution series to final concentrations of 30, 10, 3, 1, etc. μM • add 20 μl diluted compounds and controls (see above) to the wells • incubate plates for 20-24 h at 37° C. and 5% CO2 • prepare QuantiBlue™ (InvivoGen #10H19-MM) solution, following manufacturer's instructions: solubilize the powder of one pouch in 100 ml MilliQ grade water, heat at 37° C. in a water bath for about 30 min, filter the solution with a paper filter • add 100 μl prepared QuantiBlue™ solution in each well of a 96 well plate with flat bottom • add […] cell culture supernatant from the induced cells per well • incubate plates for 1 to 1.5 h at 37° C. (until an intense blue color has developed) • read OD at 620 nm with a plate reader • calculate EC50 from data points

Consider `CC(C)Cn1cnc2c(N)nc3ccccc3c21` [Imiquimod, imiquimod], for which the “5-year clearance of superficial basal cell carcinomas” value in assay [1] is recorded as “approx. 80%”.
Take `CCc1nc2c(N)nc3ccccc3c2n1CCCCNC1CCOCC1` [example V, 2-ethyl-1-(4-((tetrahydro-2H-pyran-4-yl)amino)butyl)-1H-imidazo[4,5-c]quinolin-4-amine]: the “activity towards TLR8 in the TLR8 reporter gene assay” value at human TLR8 is on record as “displayed activity”. Besides, on human TLR7, the EC50 was greater than 30 µM.
